From paper PMC10526274, “Epithelial-Immune Cell Crosstalk Determines the Activation of Immune Cells In Vitro by the Human Cathelicidin LL-37 at Low Physiological Concentrations” (Biomolecules, 2023)
Values joined by “and” are separate entries in the source; they are usually repeats but may differ in a detail not shown here. Identical values can stand only once.

System: Caco-2 cells
Assay: Multiplex xMAP cytokine levels, Caco-2 epithelial barrier alone stimulated with LL-37
Format: cell-based, human
Details: Caco-2 alone, 1 µM LL-37, 24 h, n=2
Protocol: Caco-2 cell line (ATCC HTB-37) was cultured in a humidified CO2-incubator (5% CO2, 37 °C) in the complete DMEM/F12 (1:1) medium (Gibco, Waltham, MA, USA) containing 10% fetal bovine serum (FBS, Gibco) and 1X antibiotic–antimycotic solution (Gibco). To stabilize the cell phenotype, Caco-2 cells have been subcultivated three times before seeding on the filter supports. Then, Caco-2 cells were seeded at a density of 2 × 10^5 cells/cm^2 onto 24-well Millicell cell culture inserts (PC, 0.4-μm pore size, 0.6 cm^2 surface area, cat. #PIHP01250) (Millipore, Burlington, MA, USA), precoated with 0.2% bovine gelatin (Sigma-Aldrich, Saint Louis, MO, USA). After seeding, Caco-2 cells were grown in the same complete medium with re-feeding every 2–3 days until polarization of the monolayer occurred. The functional polarity of the monolayers was developed when transepithelial electrical resistance (TEER) between the apical and basolateral surfaces of the monolayers reached […] as measured by the electrical resistance system Millicell-ERS Voltohmmeter (Millipore, Burlington, MA, USA). Grown cell monolayers were used in transport and cytokine production experiments between the 21st and 29th days.
Primary blood monocytes, moDCs, and NKT cells were seeded in 600 µL of complete RPMI-1640 with 10% Human AB serum (Capricorn Scientific, Ebsdorfergrund, Germany) and supplemented with 1X antibiotic–antimycotic solution into the wells of 24-well plates at a density of 3–7 × 10^5 cells/well 24 h before the experiment. Then, 24 h later, the medium in each well was replaced by the same medium with 1 µM of LL-37 for the sample wells or fresh medium alone for the control wells, and the permeable inserts with the Caco-2 monolayer with TEER > 400 Ω × cm^2, containing 400 μL of the complete medium in their apical chamber, were immediately placed into the appropriate wells. Also, inserts with the Caco-2 monolayer were placed in cell-free wells of 24-well plates in the same complete RPMI-1640 medium with or without 1 µM of LL-37 as controls. Cells were kept in a CO2-incubator (5% CO2, 37 °C) for another 24 h. Then, culture medium from each well was collected, centrifuged, and frozen at −70 °C.
To quantitatively evaluate a broad spectrum of analytes secreted by human cell cultures at the protein level, multiplex xMAP technology was used. The chosen panel (cat. #HCYTA-60K-PX48, Merck, Darmstadt, Germany) included 48 different magnetic beads with primary antibodies to the following cytokines, chemokines, and growth factors: CCL11 (Eotaxin-1), Flt-3 ligand, CX3CL1 (Fractalkine), sCD40L, FGF-2, EGF, GROα, GM-CSF, G-CSF, IL-1RA, IL-1α, IL-1β, IL-2, IL-3, IL-4, IL-5, IL-6, IL-7, CXCL8 (IL-8), IL-9, IL-10, IL-12p40, IL-12p70, IL-13, IL-15, IL-17A (CTLA8), IL-17E (IL-25), IL-17F, IL-18, IL-22, IL-27, IFNγ, IFNα2, CXCL10 (IP-10), CCL2 (MCP-1), CCL7 (MCP-3), CCL22 (MDC), CXCL9 (MIG), CCL3 (MIP-1α), CCL4 (MIP-1β), CCL5 (RANTES), M-CSF, PDGF-AA, PDGF-AB/BB, TNFα, TNFβ, TGFα, and VEGF-A. The assay was performed in accordance with the manufacturer’s instructions with overnight incubation of the samples with primary antibodies, and the plate was read on a MAGPIX System (Merck) using the xPONENT 4.2 software (Merck). The acquired fluorescence data were analyzed by the MILLIPLEX Analyst v5.1 software (Merck), which realized an advanced curve-fitting algorithm. Levels of the analytes in control and experimental samples were compared with an unpaired two-sample t-test using GraphPad Prism v.8.0.1 (GraphPad Software, Inc., San Diego, CA, USA). The p-values ≤ 0.05 were considered significant.

Substance: LL-37: the only human cathelicidin, host defense antimicrobial peptide of 37 a.a. residues, produced by solid-phase peptide synthesis
- MIP-1b level (control 0.3): 3.42 pg/mL
- IL-18 level (control 0.98): 0.33 pg/mL
- IL-9 level (control 1.09): 1.7 pg/mL
- IL-6 level (control 1.75): 9.84 pg/mL
- MIP-1a level (control 2.06): 5.65 pg/mL
- EGF level (control 2.26): <1.60↓ pg/ml
- IP-10 level (control 4.18): 2.9 pg/mL
- IL-4 level (control 4.8): 6.56 pg/mL
- MCP-3 level (control 7.84): 8.72 pg/mL
- sCD40L level (control 12.72): 23.6 pg/mL
- TNFb level (control 12.91, p = 0.02): 18.9 pg/mL and 18.87 pg/mL
- GROa level (control 18.09): 27.89 pg/mL
- PDGF-AB/BB level (control 22.83): 29.35 pg/mL
- IL-13 level (control 25.51): 32.02 pg/mL
- FGF-2 level (control 25.68): 16.73 pg/mL
- IL-22 level (control 27.2, p = 0.013): 39 pg/mL and 39.52 pg/mL
- IL-8 level (control 28.45, p = 0.16): 86 pg/mL and 86.32 pg/mL
- IL-27 level (control 41.5): 35.81 pg/mL
- MCP-1 level (control 55.94): 100.47 pg/mL
- PDGF-AA level (control 164.04): 149.4 pg/mL
- VEGFa level (control 960.31): 2088 pg/mL
- IL-7 level (control <0.30): <0.30↓ pg/ml
- MDC level (control <0.31): <0.31↓ pg/ml
- IL-5 level (control <0.35): <0.35↓ pg/ml
- IL-2 level (control <0.36): <0.36↓ pg/ml
- FLT-3L level (control <0.51): <0.51↓ pg/ml
- IL-3 level (control <0.55): <0.55↓ pg/ml
- RANTES level (control <0.64): <0.64↓ pg/ml
- TGF-a level (control <0.68): <0.68↓ pg/ml
- IL-17A level (control <0.70): <0.70↓ pg/ml
- IFNg level (control <0.73): <0.73↓ pg/ml
- IL-1b level (control <0.74): <0.74↓ pg/ml
- GM-CSF level (control <0.76): <0.76↓ pg/ml
- IL-1RA level (control <0.93): <0.93↓ pg/ml
- IL-1a level (control <1.30): <1.30↓ pg/ml
- IL-10 level (control <1.35): <1.35↓ pg/ml
- IL-15 level (control <1.54): <1.54↓ pg/ml
- IL-12 (p70) level (control <1.71): <1.71↓ pg/ml
- G-CSF level (control <2.32): <2.32↓ pg/ml
- Eotaxin level (control <2.91): <2.91↓ pg/ml
- IL-12 (p40) level (control <3.33): <3.33↓ pg/ml
- MIG level (control <3.38): <3.38↓ pg/ml
- IFNa2 level (control <3.88): <3.88↓ pg/ml
- TNFa level (control <3.88): <3.88↓ pg/ml
- IL-17F level (control <12.19): <12.19↓ pg/ml
- Fractalkine level (control <18.09): <18.09↓ pg/ml
- IL-17E/IL-25 level (control <19.43): <19.43↓ pg/ml
- M-GSF level (control <24.21): <24.21↓ pg/ml
